{"source": "patent US20060013804A1", "about": "“Modulation of stem cell differentiation by modulation of caspase-3 activity” (Ottawa Health Research Institute, priority 2002, published 2006)", "assay_type_in_all_cases": "cell-based, mouse", "key": {"[1]": {"test_system": "clonally-derived CD1 neurospheres", "assay": "CD1 neurosphere differentiation with caspase inhibitor: immunocytochemistry and immunoblot of neural markers", "details": "for nestin expression under differentiation conditions: early periods (48 h)", "method": "Neurosphere culture: clonally-derived neurospheres were generated from the striatum of E14.5 CD1 murine embryos according to methods previously described (Reynolds, B. A., and Weiss, S. (1996) Dev Biol 175, 1-13). The neurospheres were maintained in NeuroCult Proliferation Medium (StemCell Technologies, Canada) supplemented with 20 ng/ml basic fibroblast growth factor (bFGF) as per manufacturer's instructions.\n(§1) Neurospheres were sub-cultured no more than once per collection. The differentiation of neurospheres was initated by plating spheres on poly-L-ornithine coated plates in NeuroCult Differentiation Medium in the absence of bFGF, as per manufacturer's instructions. […] All cultures received fresh media and inhibitor every 24 h for the duration of the experiment. Neurospheres from caspase 3 null embryos (Fernando, P., et al., (2002) Proc Natl Acad Sci USA 99, 11025-11030) were cultured as described above.\n(§2) Immunocytochemistry: Neurospheres were collected at selected time points, fixed in 4% paraformaldehyde and prepared for immunostaining as previously described (Fernando, P., et al., (2002) Proc Natl Acad Sci USA 99, 11025-11030)). The primary antibody concentrations for anti-nestin, -GFAP, -MBP and -active caspase 3 (BioVision, USA) were titrated on wildtype CD1 neurospheres prior to their experimental use. These antibodies were visualized by counterstaining with either FITC or Cy3 conjugated secondary antibodies (Chemicon USA). Nuclei were localized with 4′,6-Diamidino-2 phenylindole (DAPI) (Sigma, USA). Cells were visualized using either an Axiovert 100 for transmission microscopy or Axioplan 2 for fluorescent microscopy (Zeiss, Germany) at selected magnifications. Captured images were processed using AxioVision Viewer 3.0 software.\nImmunoblot Assays: Immunoblot analyses were performed as previously described (Fernando, P., et al., (2002) Proc Natl Acad Sci USA 99, 11025-11030). All samples were processed at 4° C. to maintain protein integrity. To generate neurosphere cell extracts, cultured neurospheres were collected at the indicated time points and solubilized in modified RIPA buffer containing protease and phosphatase inhibitors. Cells were sheared 4-5 times through a 21 gauge needle and mixed by 360° rotation at 4° C. for 30 minutes. Nestin 3 (AbCam, UK) was detected following the separation of total cellular proteins through a 6% acrylamide gel and Western transfer. Antibodies against neuronal class III […] and GFAP (AbCam, USA), active caspase 3 (BioVision, USA), 2′3′ cyclic nucleotide 3′ phosphohydrolase (CNPase) (Chemicon, USA) and p38α (Santa Cruz, USA) were used to detect proteins following separation by 10% polyacrylamide electrophoresis and Western transfer. In some instances, sample aliquots were sonicated following cell lysis in order to detect total cellular poly-ADP ribose polymerase (PARP) (BioVison, USA). Soluble PARP was assayed from unsonicated samples. Protein bands from Western blot assays were quantitated using Scion Image (Scion Corporation, USA)."}, "[2]": {"test_system": "clonally-derived CD1 neurospheres", "assay": "Neurite extensions / morphology of differentiating neurospheres", "details": "differentiation media up to 5 d, 2.0 μM inhibitor, vs DMSO", "method": "as §1, §2\nQuantitation of Neurite Extensions: Neurites from differentiating neurospheres were estimated from a total of 6-8 neurospheres per condition over three independent experiments. To quantitated neuritis, the average diameter of an individual neurosphere was estimated from the vertical and horizontal distance. The number of extensions leaving the neurosphere body were then counted and an ratio of neurosphere extensions:average neurosphere diameter was calculated for each. All measurements including neurosphere diameter were evaluated using Scion Image."}, "PAK1": {"test_system": "PAK1", "assay": "Immunoprecipitation/kinase assay of PAK1 from neurospheres", "details": "differentiation media, vs DMSO", "method": "Immunoprecipitation/Kinase activity assays: Immunoprecipitation/kinase analyses were performed as previously described (Fernando, P., et al., (2002) Proc Natl Acad Sci USA 99, 11025-11030). Cellular lysates from neurospheres were generated as described above. Antibodies against apoptotic signal-regulating kinase 1 (ASK1) (Upstate, USA), p21 activated kinase 1 (PAK1) (Cell Signaling Technologies, USA), and p38 MAPK (Santa Cruz, USA) were used to immunoprecipitate respective proteins. Samples were mixed with Protein G-sepharose beads for 1 h, washed and then mixed with kinase assay buffer containing myelin basic protein (MBP) and γ-32P[ATP]. Samples were reacted at 30° C. for 30 min and separated using SDS-PAGE. In some instances, samples were transferred to PVDF membrane following electrophoresis. To quantify kinase activities, MBP acrylamide bands were excised and solubilized in scintillation fluid prior to 32P-liquid scintillation analyses. In all cases, an activated recombinant mitogen activated protein kinase activated protein-2 (MAPKAP kinase-2) (Upstate, USA) was used as an internal control for liquid scintillation analyses.\nCaspase 3, when processed to its active form, is capable of targeting and activating many protein kinases that mediate cellular differentiation. […]"}, "[3]": {"details": "2.0 μM inhibitor, differentiation media 48 h"}}, "note": "“Also recorded” adds a separate entry of the source."}
{"smiles": "COC(=O)CC[C@H](NC(=O)[C@H](CC(=O)OC)NC(=O)OCc1ccccc1)C(=O)N[C@H](C(=O)N[C@@H](CC(=O)OC)C(=O)CF)C(C)C", "note": "[z-DEVD.fmk]", "values": [{"measurement": "GFAP expression", "setting": "[1]; [3]", "value": "significant decrease; also recorded: fail to express the astrocyte marker protein GFAP"}, {"measurement": "MBP expression", "setting": "[1]; [3]", "value": "significant decrease; also recorded: fail to express the oligodendrocyte marker protein MBP"}, {"measurement": "nestin expression under differentiation conditions", "setting": "[1]; 2.0 μM inhibitor, differentiation media", "value": "sustained expression of nestin; also recorded: remain in an early progenitor state and express nestin"}, {"measurement": "nestin expression under differentiation conditions", "setting": "[1]; 2.0 μM inhibitor, differentiation media, listed as DEVD", "value": "remained elevated"}, {"measurement": "nestin expression under differentiation conditions", "setting": "[1]; 2.0 μM inhibitor, differentiation media, listed as z-DEVD", "value": "remained elevated during the early periods of differentiation"}, {"measurement": "nestin expression under growth conditions", "setting": "[1]; 2.0 μM inhibitor, growth conditions", "value": "did not affect nestin expression; also recorded: express nestin"}, {"measurement": "nestin after extended period in differentiation media", "setting": "[1]; 4 d, immunoblot", "value": "a decrease in nestin was observed"}, {"measurement": "β-III tubulin level after 5 d", "setting": "[1]; 5 d differentiation, immunoblot", "value": "very low level of β-III tubulin was detectable"}, {"measurement": "β-III tubulin (Tuj-1) accumulation", "setting": "[1]; differentiation media, immunoblot, vs DMSO", "value": "did not increase; also recorded: lower in caspase 3 inhibited samples relative to control"}, {"measurement": "neurite extensions / morphological changes", "setting": "[2]", "value": "dramatic reduction in the formation of these projections; also recorded: absent"}, {"measurement": "PAK1 activity", "setting": "PAK1", "value": "reduced"}]}
